Measurements taken from ChEMBL document CHEMBL4732123, “Discovery of 7-aminophenanthridin-6-one as a new scaffold for matrix metalloproteinase inhibitors with multitarget neuroprotective activity” (Eur J Med Chem, 2021).
pIC50: −log10 of the molar value. The source made the active and inactive calls. The calls are words filed in the database; no cut-off is given here.

Columns and labels:
[1] = biological target: T1, Matrix metalloproteinase-9 (Homo sapiens, UniProt P14780); test: Inhibition of recombinant human MMP9 (107 to 449 residues) using Mca-Pro-Leu-Gly-Leu-Dpa-Ala-Arg-NH2 expressed in Escherichia coli expression system as substrate incubated for 15 mins followed by substrate addition and measured after 2 to 4 hrs by fluorescence based assay
T1 sequence (P14780 whole entry, the tested form may be a part): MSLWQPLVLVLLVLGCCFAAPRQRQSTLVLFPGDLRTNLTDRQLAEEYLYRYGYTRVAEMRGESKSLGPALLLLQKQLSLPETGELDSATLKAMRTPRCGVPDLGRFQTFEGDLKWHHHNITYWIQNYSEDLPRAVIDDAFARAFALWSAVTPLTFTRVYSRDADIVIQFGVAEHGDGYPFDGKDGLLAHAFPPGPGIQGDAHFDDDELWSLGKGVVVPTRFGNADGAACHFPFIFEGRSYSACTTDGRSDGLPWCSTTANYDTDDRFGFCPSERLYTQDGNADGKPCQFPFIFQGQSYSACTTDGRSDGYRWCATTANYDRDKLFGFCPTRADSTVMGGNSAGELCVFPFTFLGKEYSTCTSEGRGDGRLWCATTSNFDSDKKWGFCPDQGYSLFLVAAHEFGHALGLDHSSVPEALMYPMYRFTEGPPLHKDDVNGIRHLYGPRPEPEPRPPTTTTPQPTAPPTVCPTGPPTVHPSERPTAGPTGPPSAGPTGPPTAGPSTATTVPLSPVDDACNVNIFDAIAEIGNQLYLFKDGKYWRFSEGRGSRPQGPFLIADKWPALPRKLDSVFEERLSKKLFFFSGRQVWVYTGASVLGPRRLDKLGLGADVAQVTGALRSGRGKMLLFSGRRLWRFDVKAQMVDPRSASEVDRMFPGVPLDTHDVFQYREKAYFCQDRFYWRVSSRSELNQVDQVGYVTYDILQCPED

[2] = Cytotoxicity against mouse SN-56 cells assessed as reduction in cell viability upto 100 uM incubated for 24 hrs by MTT assay; format: cell-based; conditions: sn-56, 24 h
Neutrophil collagenase [3] = biological target: T2, Neutrophil collagenase (Homo sapiens, UniProt P22894); test: Inhibition of recombinant human MMP8 (99 to 269 residues) using Mca-Pro-Leu-Gly-Leu-Dpa-Ala-Arg-NH2 expressed in Escherichia coli expression system as substrate incubated for 15 mins followed by substrate addition and measured after 2 to 4 hrs by fluorescence based assay
Target sequence in this assay (P22894 whole entry, the tested form may be a part): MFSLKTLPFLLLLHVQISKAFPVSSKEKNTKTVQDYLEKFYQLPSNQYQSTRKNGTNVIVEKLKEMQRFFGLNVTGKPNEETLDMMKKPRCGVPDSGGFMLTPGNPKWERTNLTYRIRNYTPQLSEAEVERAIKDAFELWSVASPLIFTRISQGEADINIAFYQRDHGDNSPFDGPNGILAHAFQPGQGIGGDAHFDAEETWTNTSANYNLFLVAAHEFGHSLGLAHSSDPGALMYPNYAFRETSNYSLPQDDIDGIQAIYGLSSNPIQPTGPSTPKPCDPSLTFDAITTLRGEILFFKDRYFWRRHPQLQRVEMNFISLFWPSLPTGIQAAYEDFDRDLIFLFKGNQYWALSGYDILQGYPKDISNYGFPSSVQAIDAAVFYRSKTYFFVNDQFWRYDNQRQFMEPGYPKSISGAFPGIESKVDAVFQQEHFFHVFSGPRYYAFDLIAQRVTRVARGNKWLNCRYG

[4] = biological target: T3, 72 kDa type IV collagenase (Homo sapiens, UniProt P08253); test: Inhibition of recombinant human MMP2 (110 to 452 residues) using Mca-Pro-Leu-Gly-Leu-Dpa-Ala-Arg-NH2 expressed in yeast expression system as substrate incubated for 15 mins followed by substrate addition and measured after 2 to 4 hrs by fluorescence based assay
Target sequence in this assay (P08253 whole entry, the tested form may be a part): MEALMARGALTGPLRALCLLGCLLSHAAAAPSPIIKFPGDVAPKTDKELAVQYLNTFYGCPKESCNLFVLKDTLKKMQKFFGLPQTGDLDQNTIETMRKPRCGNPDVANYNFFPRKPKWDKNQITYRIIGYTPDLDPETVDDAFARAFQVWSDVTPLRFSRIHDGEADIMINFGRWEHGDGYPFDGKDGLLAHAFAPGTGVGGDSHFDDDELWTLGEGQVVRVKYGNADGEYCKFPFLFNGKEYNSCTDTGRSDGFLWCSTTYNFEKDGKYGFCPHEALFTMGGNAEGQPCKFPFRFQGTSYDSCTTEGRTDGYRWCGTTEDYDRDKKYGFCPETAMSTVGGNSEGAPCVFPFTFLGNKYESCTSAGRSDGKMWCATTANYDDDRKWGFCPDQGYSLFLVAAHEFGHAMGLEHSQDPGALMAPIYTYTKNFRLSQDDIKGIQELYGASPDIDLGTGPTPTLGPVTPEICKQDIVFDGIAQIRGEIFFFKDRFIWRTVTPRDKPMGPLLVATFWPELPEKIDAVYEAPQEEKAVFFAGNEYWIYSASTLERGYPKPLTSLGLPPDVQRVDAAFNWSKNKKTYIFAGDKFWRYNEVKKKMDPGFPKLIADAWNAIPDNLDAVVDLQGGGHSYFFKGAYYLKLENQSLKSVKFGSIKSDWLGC

Collagenase 3 [5] = biological target: T4, Collagenase 3 (Homo sapiens, UniProt P45452); test: Inhibition of recombinant human MMP13 (104 to 274 residues) using Mca-Pro-Leu-Gly-Leu-Dpa-Ala-Arg-NH2 expressed in Escherichia coli expression system as substrate incubated for 15 mins followed by substrate addition and measured after 2 to 4 hrs by fluorescence based assay
[6] = Neuroprotective activity against H2O2-induced lipid peroxidation in mouse SN-56 cells assessed as increase in MDA level at 1 to 150 uM incubated for 24 hrs by lipid peroxidation MDA assay kit method relative to control; format: functional; conditions: dose 1-150 µM
Collagenase 3 [7] = biological target: T4, Collagenase 3; test: Non-competitive inhibition of recombinant human MMP13 (104 to 274 residues) using Mca-Pro-Leu-Gly-Leu-Dpa-Ala-Arg-NH2 expressed in Escherichia coli expression system as substrate by fluorescence based Dixon plot assay; conditions: time 2-4 hrs
[8] = biological target: T1, Matrix metalloproteinase-9; test: Non-competitive inhibition of recombinant human MMP9 (107 to 449 residues) using Mca-Pro-Leu-Gly-Leu-Dpa-Ala-Arg-NH2 expressed in Escherichia coli expression system as substrate incubated for 15 mins followed by substrate addition and measured after 2 to 4 hrs by fluorescence based assay; conditions: time 2-4.25 hrs
[9] = biological target: T1, Matrix metalloproteinase-9; test: Non-competitive inhibition of recombinant human MMP9 (107 to 449 residues) using Mca-Pro-Leu-Gly-Leu-Dpa-Ala-Arg-NH2 expressed in Escherichia coli expression system as substrate by substrate by fluorescence based Lineweaver-Burk plot; conditions: time 2-4 hrs
Neutrophil collagenase [10] = biological target: T2, Neutrophil collagenase; test: Non-competitive inhibition of recombinant human MMP8 (99 to 269 residues) using Mca-Pro-Leu-Gly-Leu-Dpa-Ala-Arg-NH2 expressed in Escherichia coli expression system as substrate by substrate by fluorescence based Dixon plot; conditions: time 2-4 hrs
Target sequence in this assay (P22894 101-467 limits assumed): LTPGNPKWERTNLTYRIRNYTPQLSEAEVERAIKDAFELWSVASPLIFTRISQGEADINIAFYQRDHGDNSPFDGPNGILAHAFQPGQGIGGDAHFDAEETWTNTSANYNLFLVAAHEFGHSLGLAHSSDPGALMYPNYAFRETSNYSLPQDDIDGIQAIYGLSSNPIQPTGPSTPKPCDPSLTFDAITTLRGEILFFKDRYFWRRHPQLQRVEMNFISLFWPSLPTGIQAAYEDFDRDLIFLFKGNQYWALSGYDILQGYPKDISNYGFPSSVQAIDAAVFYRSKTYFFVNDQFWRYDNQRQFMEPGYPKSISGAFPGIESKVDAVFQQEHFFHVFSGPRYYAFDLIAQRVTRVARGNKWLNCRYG

[11] = biological target: T3, 72 kDa type IV collagenase; test: Non-competitive inhibition of recombinant human MMP2 (110 to 452 residues) using Mca-Pro-Leu-Gly-Leu-Dpa-Ala-Arg-NH2 expressed in yeast expression system as substrate by fluorescence based Dixon plot; conditions: time 2-4 hrs
Target sequence in this assay (P08253 110-660 limits assumed): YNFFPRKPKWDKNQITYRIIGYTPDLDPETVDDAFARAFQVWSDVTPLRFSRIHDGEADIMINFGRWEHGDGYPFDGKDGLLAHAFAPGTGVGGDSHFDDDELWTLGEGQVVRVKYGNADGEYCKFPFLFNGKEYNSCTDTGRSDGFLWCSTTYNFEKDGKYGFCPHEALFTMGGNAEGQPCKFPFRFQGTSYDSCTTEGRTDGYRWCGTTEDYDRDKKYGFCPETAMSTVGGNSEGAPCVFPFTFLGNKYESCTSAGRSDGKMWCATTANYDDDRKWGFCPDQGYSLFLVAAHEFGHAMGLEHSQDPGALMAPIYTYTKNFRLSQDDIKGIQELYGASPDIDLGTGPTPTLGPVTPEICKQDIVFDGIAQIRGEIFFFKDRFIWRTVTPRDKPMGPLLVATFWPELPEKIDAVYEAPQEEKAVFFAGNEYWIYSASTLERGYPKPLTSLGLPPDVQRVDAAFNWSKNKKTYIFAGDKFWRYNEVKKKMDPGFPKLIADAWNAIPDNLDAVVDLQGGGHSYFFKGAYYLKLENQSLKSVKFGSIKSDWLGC

[12] = biological target: T1, Matrix metalloproteinase-9; test: Non-competitive inhibition of recombinant human MMP9 (107 to 449 residues) using Mca-Pro-Leu-Gly-Leu-Dpa-Ala-Arg-NH2 expressed in Escherichia coli expression system as substrate by substrate by fluorescence based Dixon plot; conditions: time 2-4 hrs
[13] = biological target: T3, 72 kDa type IV collagenase; test: Non-competitive inhibition of recombinant human MMP2 (110 to 452 residues) using Mca-Pro-Leu-Gly-Leu-Dpa-Ala-Arg-NH2 expressed in yeast expression system as substrate incubated for 15 mins followed by substrate addition and measured after 2 to 4 hrs by fluorescence based assay; conditions: time 2-4.25 hrs
Target sequence in this assay (P08253 110-660 limits assumed): as above

Collagenase 3 [14] = biological target: T4, Collagenase 3; test: (§1) Non-competitive inhibition of recombinant human MMP13 (104 to 274 residues) using Mca-Pro-Leu-Gly-Leu-Dpa-Ala-Arg-NH2 expressed in Escherichia coli expression system as substrate incubated for 15 mins followed by substrate addition and measured after 2 to 4 hrs by fluorescence based assay; conditions: time 2-4.25 hrs
SN-56 [15] = test: Neuroprotective activity against H2O2-induced cytotoxicity in mouse SN-56 cells assessed as increase in cell viability at 10 to 100 uM incubated for 24 hrs by MTT assay; format: functional, cell-based; conditions: dose 10-100 µM
Neutrophil collagenase [16] = biological target: T2, Neutrophil collagenase; test: Non-competitive inhibition of recombinant human MMP8 (99 to 269 residues) using Mca-Pro-Leu-Gly-Leu-Dpa-Ala-Arg-NH2 expressed in Escherichia coli expression system as substrate by substrate by fluorescence based Lineweaver-Burk plot; conditions: time 2-4 hrs
Target sequence in this assay (P22894 101-467 limits assumed): as the sequence (P22894 101-467 limits assumed) above

Neutrophil collagenase [17] = biological target: T2, Neutrophil collagenase; test: Non-competitive inhibition of recombinant human MMP8 (99 to 269 residues) using Mca-Pro-Leu-Gly-Leu-Dpa-Ala-Arg-NH2 expressed in Escherichia coli expression system as substrate by substrate by fluorescence based Michaelis-Menten analysis; conditions: time 2-4 hrs
Target sequence in this assay (P22894 101-467 limits assumed): as above

Collagenase 3 [18] = biological target: T4, Collagenase 3; test: Non-competitive inhibition of recombinant human MMP13 (104 to 274 residues) using Mca-Pro-Leu-Gly-Leu-Dpa-Ala-Arg-NH2 expressed in Escherichia coli expression system as substrate by fluorescence based Lineweaver-Burk plot assay; conditions: time 2-4 hrs
SN-56 [19] = test: Neuroprotective activity against H2O2-induced lipid peroxidation in mouse SN-56 cells assessed as increase in MDA level incubated for 24 hrs by lipid peroxidation MDA assay kit method; format: functional, cell-based
[20] = biological target: T3, 72 kDa type IV collagenase; test: Non-competitive inhibition of recombinant human MMP2 (110 to 452 residues) using Mca-Pro-Leu-Gly-Leu-Dpa-Ala-Arg-NH2 expressed in yeast expression system as substrate by fluorescence based Michaelis-Menten analysis; conditions: time 2-4 hrs
Target sequence in this assay (P08253 110-660 limits assumed): as the sequence (P08253 110-660 limits assumed) above

Collagenase 3 [21] = biological target: T4, Collagenase 3; test: Non-competitive inhibition of recombinant human MMP13 (104 to 274 residues) using Mca-Pro-Leu-Gly-Leu-Dpa-Ala-Arg-NH2 expressed in Escherichia coli expression system as substrate by fluorescence based Michaelis-Menten analysis assay; conditions: time 2-4 hrs
[22] = biological target: T3, 72 kDa type IV collagenase; test: Non-competitive inhibition of recombinant human MMP2 (110 to 452 residues) using Mca-Pro-Leu-Gly-Leu-Dpa-Ala-Arg-NH2 expressed in yeast expression system as substrate by fluorescence based Lineweaver-Burk plot; conditions: time 2-4 hrs
Target sequence in this assay (P08253 110-660 limits assumed): as above

Neutrophil collagenase [23] = biological target: T2, Neutrophil collagenase; test: Non-competitive inhibition of recombinant human MMP8 (99 to 269 residues) using Mca-Pro-Leu-Gly-Leu-Dpa-Ala-Arg-NH2 expressed in Escherichia coli expression system as substrate incubated for 15 mins followed by substrate addition and measured after 2 to 4 hrs by fluorescence based assay; conditions: time 2-4.25 hrs
Target sequence in this assay (P22894 101-467 limits assumed): as the sequence (P22894 101-467 limits assumed) above

[24] = biological target: T1, Matrix metalloproteinase-9; test: Non-competitive inhibition of recombinant human MMP9 (107 to 449 residues) using Mca-Pro-Leu-Gly-Leu-Dpa-Ala-Arg-NH2 expressed in Escherichia coli expression system as substrate by substrate by fluorescence based Michaelis-Menten analysis; conditions: time 2-4 hrs
Collagenase 3 [25] = biological target: T4, Collagenase 3; test: as §1, with “as substrate at 100 uM incubated for” for “as substrate incubated for”, “based assay relative to control” for “based assay”; conditions: time 2-4.25 hrs
SN-56 [26] = test: Neuroprotective activity against H2O2-induced lipid peroxidation in mouse SN-56 cells assessed as increase in MDA level at 100 uM incubated for 24 hrs by lipid peroxidation MDA assay kit method; format: functional, cell-based

SMILES | pIC50 [1] | pIC50 (Neutrophil collagenase [3]) | pIC50 [4] | pIC50 (Collagenase 3 [5]) | Activity [2] | Activity [6] | Activity (SN-56 [19]) | further results
O=c1[nH]c2ccccc2c2cc(-c3ccccc3)cc(Nc3ccccc3)c12 | 4.27 | 4.16 | 4.89 | 4.38 | Non-Toxic |  |  | 
COc1ccc(Nc2cc(-c3cccs3)cc3c2c(=O)[nH]c2ccccc23)cc1 | 5.30 | 5.15 | 5.22 | 5.27 | Non-Toxic | 100% | Dose-dependent effect | Activity (Collagenase 3 [7]): Active; inhibition [8]: Active; Activity [9]: Active; Activity (Neutrophil collagenase [10]): Active; Activity [11]: Active; Activity [12]: Active; inhibition [13]: Active; inhibition (Collagenase 3 [14]): Active; Activity (SN-56 [15]): Active; Activity (Neutrophil collagenase [16]): Active; Activity (Neutrophil collagenase [17]): Active; Activity (Collagenase 3 [18]): Active; Activity [20]: Active; Activity (Collagenase 3 [21]): Active; Activity [22]: Active; inhibition (Neutrophil collagenase [23]): Active; Activity [24]: Active
O=c1[nH]c2ccccc2c2cc(-c3cccs3)cc(Nc3ccc(F)cc3)c12 | 4.70 | 4.58 | 5.17 | 4.80 | Non-Toxic | 100% | Dose-dependent effect | Activity (SN-56 [15]): Active
CCCCNc1cc(-c2cccs2)cc2c1c(=O)[nH]c1ccccc12 | < 4.00 | < 4.00 | 4.42 |  | Non-Toxic |  | Dose-dependent effect | inhibition (Collagenase 3 [25]): 54%
O=c1[nH]c2ccccc2c2cc(-c3ccco3)cc(Nc3ccccc3)c12 | < 4.00 | < 4.00 | 4.60 | 4.38 | Non-Toxic |  | Dose-dependent effect | 
Nc1cc(-c2ccccc2)cc2c1c(=O)[nH]c1ccccc12 | < 4.00 | < 4.00 | < 4.00 | < 4.00 | Non-Toxic |  |  | 
O=c1[nH]c2ccccc2c2cc(-c3cccs3)cc(Nc3ccccc3)c12 | 4.79 | 4.74 | 5.21 | 4.81 | Non-Toxic | 100% | Dose-dependent effect | Activity (SN-56 [15]): Active
Cc1cc(C)cc(Nc2cc(-c3ccco3)cc3c2c(=O)[nH]c2ccccc23)c1 | 4.07 | 4.22 | 4.67 | 4.34 | Non-Toxic |  |  | 
CCCCNc1cc(-c2ccccc2)cc2c1c(=O)[nH]c1ccccc12 | 4.00 | 4.07 | 4.25 | 4.22 | Non-Toxic | 100% | Dose-dependent effect | 
COc1ccc(Nc2cc(-c3ccccc3)cc3c2c(=O)[nH]c2c(OC)c(OC)ccc23)cc1 | 4.69 | 4.17 | 4.38 | 4.43 | Non-Toxic |  |  | 
Nc1cc(-c2cccs2)cc2c1c(=O)[nH]c1ccccc12 | < 4.00 | < 4.00 | < 4.00 | < 4.00 | Non-Toxic | 100% | Dose-dependent effect | Activity (SN-56 [15]): Active
O=c1[nH]c2ccccc2c2cc(-c3ccco3)cc(Nc3ccc(F)cc3)c12 | < 4.00 | < 4.00 | 4.34 | < 4.00 | Non-Toxic |  |  | 
Cc1c(C)c2c(c(C)c1O)CCC(C)(C(=O)O)O2 (configuration not stated) |  |  |  |  |  |  |  | Activity (SN-56 [26]): Active
Cn1c(=O)c2c(Nc3ccccc3)cc(-c3ccccc3)cc2c2ccccc21 | < 4.00 | < 4.00 | < 4.00 | < 4.00 | Non-Toxic |  |  | 

Second part, led by results:

pIC50 [1] | pIC50 (Neutrophil collagenase [3]) | pIC50 [4] | pIC50 (Collagenase 3 [5]) | SMILES | Activity [2] | Activity [6] | Activity (SN-56 [19]) | further results
4.06 | 4.08 | 4.14 | 4.40 | CN(C)c1ccc(Nc2cc(-c3ccccc3)cc3c2c(=O)[nH]c2ccccc23)cc1 | Non-Toxic |  |  | 
4.43 | 4.21 | 4.07 | 4.39 | Cc1ccc(-c2cc(Nc3ccccc3)c3c(=O)[nH]c4ccccc4c3c2)cc1 | Non-Toxic |  |  | 
4.00 | < 4.00 | 4.01 | 4.00 | O=c1[nH]c2ccccc2c2cc(-c3ccccc3)cc(Nc3ccc(F)cc3)c12 | Non-Toxic |  | Dose-dependent effect | 
4.55 | 4.33 | 4.49 | 4.14 | Nc1ccc(-c2cc(Nc3ccccc3)c3c(=O)[nH]c4ccccc4c3c2)cc1 | Non-Toxic | 100% | Dose-dependent effect | Activity (SN-56 [15]): Active
4.66 | < 4.00 | 4.22 | 4.79 | COc1ccc(Nc2cc(-c3ccccc3)cc3c2c(=O)[nH]c2ccccc23)cc1 | Non-Toxic | 100% | Dose-dependent effect | Activity (SN-56 [15]): Active
4.49 | 4.27 | 4.33 | 4.40 | COc1ccc(-c2cc(Nc3ccccc3)c3c(=O)[nH]c4ccccc4c3c2)cc1 | Non-Toxic |  | Dose-dependent effect | 
5.05 | 4.64 | 5.05 | 4.82 | COc1ccc(Nc2cc(-c3ccco3)cc3c2c(=O)[nH]c2ccccc23)cc1 | Non-Toxic |  | Dose-dependent effect | 
